# Literature values, collected in patent US20120022018A1, “ANTI-VIRAL PROPERTIES OF ALOE VERA AND ACQUIRED IMMUNE DEFICIENCY SYNDROME (AIDS) TREATMENT” (NORTH TEXAS MEDICAL ASSOCIATES, priority 2010, published 2012).
# Columns and labels:
# [1] = system: New Castle and paramyxoviruses; conditions: New Castle and paramyxoviruses in culture; altered envelope glycoproteins
# [2] = system: HIV-1 envelope glycoprotein; conditions: HIV-1 infected monocytes cultures; instead of usual GP-160, GP-120, GP-41 bands
# [3] = system: monocytic/macrophagic (M/M) cell counts; conditions: in vivo
substance,measurement,setting,value
Acemannan,effect on infectivity of virions,[1],rendered the virions incapable of infecting susceptible target cell lines as well as animals
same,effect on HIV-1 envelope glycoprotein,[2],induced the production of multiple molecular weights of HIV-1 envelope glycoprotein
same,monocytic/macrophagic (M/M) cell counts,[3],increase
